Experimental data reported in ChEMBL document CHEMBL3045467, “Major alkaloidal constituent from Impatiens niamniamensis seeds as antihyperglycemic agent” (2011).

Legend:
Assay type in all cases: functional
Parameters in all cases: scale not given: the % may be the effect or the level left
Rattus norvegicus [1] = experiment: Antihyperglycemic activity in albino Rattus norvegicus Sprague-Dawley (rat) streptozotocin-induced diabetic model assessed as reduction of AUC of blood glucose level at 100 mg/kg, po after 5 hr
Rattus norvegicus [2] = experiment: Antihyperglycemic activity in albino Rattus norvegicus Sprague-Dawley (rat) streptozotocin-induced diabetic model assessed as reduction of AUC of blood glucose level at 100 mg/kg, po after 24 hr
Rattus norvegicus [3] = experiment: Antihyperglycemic activity in albino Rattus norvegicus Sprague-Dawley (rat) streptozotocin-induced diabetic model assessed as reduction of AUC of blood glucose level at 50 mg/kg, po after 24 hr
Rattus norvegicus [4] = experiment: Antihyperglycemic activity in albino Rattus norvegicus Sprague-Dawley (rat) streptozotocin-induced diabetic model assessed as reduction of AUC of blood glucose level at 50 mg/kg, po after 5 hr

Structure (SMILES): CN(C)C(=N)NC(=N)N [METFORMIN]
- Activity (Rattus norvegicus [1]): 26%
- Activity (Rattus norvegicus [2]): 24.9%

Structure (SMILES): C[N+](C)(C)[C@@H](Cc1c[nH]c2ccccc12)C(=O)[O-] [Hypaphorine]
- Activity (Rattus norvegicus [3]): 20.4%
- Activity (Rattus norvegicus [4]): 27.8%
